Measured values published in PubChem BioAssay AID2060887 (Molecular Pharmacology Branch, DTP, NCI, 2025).
Where “and” joins values, the source holds several entries; their conditions need not be identical. Equal values may be shown once.

Tested on: 782815-120-R-J1-PDC complex spheroid viability
Assay: Anticancer human tumor 782815-120-R-J1-PDC patient-derived colon adenocarcinoma cell line growth inhibition [RAS]
Conditions: for viability, T/C: stronger effect = lower value
In short: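 Multi-cell-type spheroids: tumor cells plus HUVEC endothelial cells and mesenchymal stem cells. RAS-pathway inhibitors were combined with targeted agents, each dosed in half-log steps down from clinical Cmax, or from 10 microM when Cmax was unknown.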

[1] = curve of first compound, second compound 0.00316 µM
[2] = curve of first compound, second compound 0.01 µM
[3] = curve of first compound, second compound 0.0316 µM
[4] = curve of first compound, second compound 0.1 µM
[5] = curve of first compound, second compound 0.316 µM
[6] = curve of first compound, second compound 1 µM
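Further: spheroids exposed to compounds for 7 days before reading.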
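Wherever viability, T/C is given: 100% = DMSO vehicle control viability.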

CC1(C)CCC(Nc2ncc(C(F)(F)F)c(-c3c[nH]c4c(P(C)(C)=O)c(C#N)ccc34)n2)CN1 (stereo not drawn) + C=CC(=O)N1CCN(c2nc(OCC3CCCN3C)nc3c(F)c(-c4nc(N)cc(C)c4C(F)(F)F)c(Cl)cc23)C(C)C1
IC50 [1]: > 300 nM
IC50 [2]: > 300 nM
IC50 [3]: > 300 nM
IC50 [4]: > 300 nM
IC50 [5]: > 300 nM
IC50 [6]: 270 nM
viability, T/C (second compound 0.00316 µM, first compound 0.000949 µM): 106%
viability, T/C (second compound 0.00316 µM, first compound 0.003 µM): 113%
viability, T/C (second compound 0.00316 µM, first compound 0.00949 µM): 88.4%
viability, T/C (second compound 0.00316 µM, first compound 0.03 µM): 63.7%
viability, T/C (second compound 0.00316 µM, first compound 0.0949 µM): 68.8%
viability, T/C (second compound 0.00316 µM, first compound 0.3 µM): 58.3%
viability, T/C (second compound 0.01 µM, first compound 0.000949 µM): 97.7%
viability, T/C (second compound 0.01 µM, first compound 0.003 µM): 101%
viability, T/C (second compound 0.01 µM, first compound 0.00949 µM): 88.7%
viability, T/C (second compound 0.01 µM, first compound 0.03 µM): 72.9%
viability, T/C (second compound 0.01 µM, first compound 0.0949 µM): 49.5%
viability, T/C (second compound 0.01 µM, first compound 0.3 µM): 59.6%
viability, T/C (second compound 0.0316 µM, first compound 0.000949 µM): 107%
viability, T/C (second compound 0.0316 µM, first compound 0.003 µM): 103%
viability, T/C (second compound 0.0316 µM, first compound 0.00949 µM): 90.8%
viability, T/C (second compound 0.0316 µM, first compound 0.03 µM): 77.2%
viability, T/C (second compound 0.0316 µM, first compound 0.0949 µM): 57.8%
viability, T/C (second compound 0.0316 µM, first compound 0.3 µM): 52.3%
viability, T/C (second compound 0.1 µM, first compound 0.000949 µM): 107%
viability, T/C (second compound 0.1 µM, first compound 0.003 µM): 104%
viability, T/C (second compound 0.1 µM, first compound 0.00949 µM): 88.7%
viability, T/C (second compound 0.1 µM, first compound 0.03 µM): 68.2%
viability, T/C (second compound 0.1 µM, first compound 0.0949 µM): 55.5%
viability, T/C (second compound 0.1 µM, first compound 0.3 µM): 56.8%
viability, T/C (second compound 0.316 µM, first compound 0.000949 µM): 103%
viability, T/C (second compound 0.316 µM, first compound 0.003 µM): 97.2%
viability, T/C (second compound 0.316 µM, first compound 0.00949 µM): 90.9%
viability, T/C (second compound 0.316 µM, first compound 0.03 µM): 67.2%
viability, T/C (second compound 0.316 µM, first compound 0.0949 µM): 77.3%
viability, T/C (second compound 0.316 µM, first compound 0.3 µM): 55.3%
viability, T/C (second compound 1 µM, first compound 0.000949 µM): 120%
viability, T/C (second compound 1 µM, first compound 0.003 µM): 97.1%
viability, T/C (second compound 1 µM, first compound 0.00949 µM): 85.8%
viability, T/C (second compound 1 µM, first compound 0.03 µM): 63.3%
viability, T/C (second compound 1 µM, first compound 0.0949 µM): 65.2%
viability, T/C (second compound 1 µM, first compound 0.3 µM): 53.3%

CCc1c2c(nc3ccc(O)cc13)-c1cc3c(c(=O)n1C2)COC(=O)[C@]3(O)CC
viability, T/C (compound 0.000949 µM): 100% [middle of 4 runs]
viability, T/C (compound 0.003 µM): 59.1% [middle of 4 runs]
viability, T/C (compound 0.00949 µM): 20.2% [middle of 4 runs]
viability, T/C (compound 0.03 µM): 9.92% [middle of 4 runs]
viability, T/C (compound 0.0949 µM): 3.66% [middle of 4 runs]
viability, T/C (compound 0.3 µM): 1.71% [middle of 4 runs]
IC50 (curve of compound): 4.02 nM [middle of 4 runs]

CCC(CC)c1cc(NC2CCC(N)C2)n2nccc2n1 (stereo not drawn) + C=CC(=O)N1CCN(c2nc(OCC3CCCN3C)nc3c(F)c(-c4nc(N)cc(C)c4C(F)(F)F)c(Cl)cc23)C(C)C1
IC50 [1]: 2280 nM
IC50 [2]: 2320 nM
IC50 [3]: 2450 nM
IC50 [4]: 2160 nM
IC50 [5]: 2540 nM
IC50 [6]: 2280 nM
viability, T/C (second compound 0.00316 µM, first compound 0.0316 µM): 108%
viability, T/C (second compound 0.00316 µM, first compound 0.1 µM): 111%
viability, T/C (second compound 0.00316 µM, first compound 0.316 µM): 106%
viability, T/C (second compound 0.00316 µM, first compound 1 µM): 98.3%
viability, T/C (second compound 0.00316 µM, first compound 3.16 µM): 31%
viability, T/C (second compound 0.00316 µM, first compound 10 µM): 1.4%
viability, T/C (second compound 0.01 µM, first compound 0.0316 µM): 105%
viability, T/C (second compound 0.01 µM, first compound 0.1 µM): 107%
viability, T/C (second compound 0.01 µM, first compound 0.316 µM): 108%
viability, T/C (second compound 0.01 µM, first compound 1 µM): 104%
viability, T/C (second compound 0.01 µM, first compound 3.16 µM): 30.4%
viability, T/C (second compound 0.01 µM, first compound 10 µM): 1.14%
viability, T/C (second compound 0.0316 µM, first compound 0.0316 µM): 101%
viability, T/C (second compound 0.0316 µM, first compound 0.1 µM): 103%
viability, T/C (second compound 0.0316 µM, first compound 0.316 µM): 95.8%
viability, T/C (second compound 0.0316 µM, first compound 1 µM): 115%
viability, T/C (second compound 0.0316 µM, first compound 3.16 µM): 34.6%
viability, T/C (second compound 0.0316 µM, first compound 10 µM): 1.3%
viability, T/C (second compound 0.1 µM, first compound 0.0316 µM): 102%
viability, T/C (second compound 0.1 µM, first compound 0.1 µM): 98.2%
viability, T/C (second compound 0.1 µM, first compound 0.316 µM): 104%
viability, T/C (second compound 0.1 µM, first compound 1 µM): 98.4%
viability, T/C (second compound 0.1 µM, first compound 3.16 µM): 26.2%
viability, T/C (second compound 0.1 µM, first compound 10 µM): 1.7%
viability, T/C (second compound 0.316 µM, first compound 0.0316 µM): 103%
viability, T/C (second compound 0.316 µM, first compound 0.1 µM): 101%
viability, T/C (second compound 0.316 µM, first compound 0.316 µM): 95.5%
viability, T/C (second compound 0.316 µM, first compound 1 µM): 106%
viability, T/C (second compound 0.316 µM, first compound 3.16 µM): 37.9%
viability, T/C (second compound 0.316 µM, first compound 10 µM): 1.49%
viability, T/C (second compound 1 µM, first compound 0.0316 µM): 98%
viability, T/C (second compound 1 µM, first compound 0.1 µM): 104%
viability, T/C (second compound 1 µM, first compound 0.316 µM): 103%
viability, T/C (second compound 1 µM, first compound 1 µM): 100%
viability, T/C (second compound 1 µM, first compound 3.16 µM): 29.9%
viability, T/C (second compound 1 µM, first compound 10 µM): 2.19%

CC(Nc1ccc2c(c1)OCCn1cc(N3C(=O)OCC3C(F)F)nc1-2)C(N)=O (stereo not drawn)
viability, T/C (compound 0.0316 µM): 102% (2×) and 103% and 93.2%
viability, T/C (compound 0.1 µM): 97.5% [middle of 4 runs]
viability, T/C (compound 0.316 µM): 90.9% [middle of 4 runs]
viability, T/C (compound 1 µM): 87.2% [middle of 4 runs]
viability, T/C (compound 3.16 µM): 100% [middle of 4 runs]
viability, T/C (compound 10 µM): 93% [middle of 4 runs]
IC50 (curve of compound): > 10000 nM
